The text below walks through data of patent US20240376118A1, “BI-FUNCTIONAL COMPOUNDS AND METHODS FOR TARGETED UBIQUITINATION OF ANDROGEN RECEPTOR” (MONTELINO THERAPEUTICS, INC., priority 2021, published 2024).

The assay deals with 22Rv1-Enz^R human prostate cancer cell line. In words: 22Rv1-Enz^R cell proliferation assay. It is filed as cell-based. As to conditions: 22Rv1-Enz^R cells, 6-day culture, cell media changed every 24 hours, read-out: 22Rv1-Enz^R proliferation assay GIC50 (half maximal growth inhibition constant). Here is the method: The human prostate cancer cell line, 22Rv1 has been reported to express a high level of AR-V7. According to one procedure, 22Rv1 is seeded at 50,000 cells/well on a 24-well plate in quadruplicate and treated with test compounds in concentrations ranging up to 20 μM for four days. Standard culture media is RPMI-1640 supplemented with 10% fetal bovine serum. The test compound initially is dissolved in DMSO at 50 mM. This stock solution is then diluted as needed for the indicated concentrations. At the end of the four-day period, cells are harvested using 1% trypsin and counted using an automated cell counter.
Cell Culture. Human CaP cell lines, LNCaP, 22Rv1, VCaP, PC3, and DU145 are obtained from the American Type Culture Collection (ATCC) and maintained in the standard culture media: RPMI-1640 supplemented with 10% fetal bovine serum (FBS). LNCaP, 22Rv1, and VCaP are androgen-responsive cell lines, while PC3 and DU145 are not. To establish SAT resistant CaP cell lines, LNCaP, 22Rv1, and VCaP are treated continuously with 10-50 μM abiraterone, apalutamide, darolutamide, or enzalutamide. After 3-6 months, stable cell lines are established and designated as LNCaP-Abi^R, LNCaP-Apa^R, LNCaP-Daro^R, LNCaP-Enz^R, VCaP-Abi^R, VCaP-Apa^R, VCaP-Daro^R, VCaP-Enz^R, 22Rv1-Abi^R, 22Rv1-Apa^R, 22Rv1-Daro^R and 22Rv1-Enz^R. Unless otherwise specified, the standard culture media for these SAT-resistant cell lines included 10 μM of their respective SAT. For the proteasome inhibitor study, the inhibitors MG132 and Epoxomicin are used. The E3 ligase inhibitors Heclin, Nutlin 3a, Thalidomide, and VH298 are used. Cell lines obtained from ATCC are confirmed by checking their morphology using optical microscopy, establishing baselines for cell proliferation, verifying species of origin using isoenzymology, and characterizing the cell's DNA fingerprint using short tandem repeat (STR) profiling. Mycoplasma contamination is also assessed using a PCR based detection system.
Selected compounds may be tested in the human prostate cancer cell line, 22Rv1-Enz^R, as described in Geun Taek Lee et al., Molecular Cancer Therapeutics, 20:490-9 (2021). These procedures are similar to that described in Experimental Example 1, above, except that the assay conditions are a 6-day culture with cell media changed every 24 hours.
For `O=C(COc1c(-c2csc(N3CCOCC3)n2)ccc(F)c1F)NCCCCCCCCCCNc1cc2c(cc1F)C(=O)N(C1CCC(=O)NC1=O)C2=O` (stereo not drawn) [Example 25, 2-(2,3-difluoro-6-(2-morpholinothiazol-4-yl)phenoxy)-N-(10-((2-(2,6-dioxopiperidin-3-yl)-6-fluoro-1,3-dioxoisoindolin-5-yl)amino)decyl)acetamide], the IC50 was under 10 µM. In the case of `O=C1CCC(N2C(=O)c3cc(F)c(N4CCN(CC5CCN(C(=O)COc6c(-c7csc(N8CCOCC8)n7)ccc(F)c6F)CC5)CC4)cc3C2=O)C(=O)N1` (stereo not drawn) [Example 20, 5-(4-((1-(2-(2,3-difluoro-6-(2-morpholinothiazol-4-yl)phenoxy)acetyl)piperidin-4-yl)methyl)piperazin-1-yl)-2-(2,6-dioxopiperidin-3-yl)-6-fluoroisoindoline-1,3-dione] it was under 10 µM. The figure for `O=C(COc1c(-c2csc(N3CCOCC3)n2)ccc(F)c1F)NCCCCCCC(=O)N1CCN(c2cc3c(cc2F)C(=O)N(C2CCC(=O)NC2=O)C3=O)CC1` (stereo not drawn) [Example 2, 2-(2,3-difluoro-6-(2-morpholinothiazol-4-yl)phenoxy)-N-(7-(4-(2-(2,6-dioxopiperidin-3-yl)-6-fluoro-1,3-dioxoisoindolin-5-yl)piperazin-1-yl)-7-oxoheptyl)acetamide] is under 10 µM; for `O=C(COc1c(-c2csc(N3CCOCC3)n2)ccc(F)c1F)NCCCCCCCCCCC(=O)N1CCN(c2cc3c(cc2F)C(=O)N(C2CCC(=O)NC2=O)C3=O)CC1` (stereo not drawn) [Example 3, 2-(2,3-difluoro-6-(2-morpholinothiazol-4-yl)phenoxy)-N-(11-(4-(2-(2,6-dioxopiperidin-3-yl)-6-fluoro-1,3-dioxoisoindolin-5-yl)piperazin-1-yl)-11-oxoundecyl)acetamide] it is under 10 µM; for `O=C(COc1c(-c2csc(N3CCOCC3)n2)ccc(F)c1F)NCCCCC(=O)N1CCN(c2cc3c(cc2F)C(=O)N(C2CCC(=O)NC2=O)C3=O)CC1` (stereo not drawn) [Example 1, 2-(2,3-difluoro-6-(2-morpholinothiazol-4-yl)phenoxy)-N-(5-(4-(2-(2,6-dioxopiperidin-3-yl)-6-fluoro-1,3-dioxoisoindolin-5-yl)piperazin-1-yl)-5-oxopentyl)acetamide] it is under 10 µM. In the case of `O=C1CCC(N2C(=O)c3cc(F)c(NCCCCOCCOCCOCCOc4c(-c5csc(N6CCOCC6)n5)ccc(F)c4F)cc3C2=O)C(=O)N1` (stereo not drawn) [Example 32, 5-((4-(2-(2-(2-(2,3-difluoro-6-(2-morpholinothiazol-4-yl)phenoxy)ethoxy)ethoxy)ethoxy)butyl)amino)-2-(2,6-dioxopiperidin-3-yl)-6-fluoroisoindoline-1,3-dione] it was under 10 µM.
